The values that follow come from patent publication US20220324835A1 (Nurix Therapeutics, Inc., priority 2018, published 2022).

As usually defined, the IC50 is the concentration at which inhibition is half-maximal. The term Kd denotes the concentration at which binding is half-saturated.

In assay [1] the target is T1, Cbl-b (Homo sapiens, UniProt Q13191). The assay is described as follows: Cbl-b activity assay (Cbl-b inhibition assay), TR-FRET of Cbl-b interaction with UbcH5B-Ub. The class given is biochemical. Particulars: assay buffer with 100 mM NaCl, 60 nM Src kinase; read-out: Cbl-b activity IC50. In short, it runs like this: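 Compound-treated Cbl-b was incubated 1.5 h with Src kinase (60 nM final; 30 nM for asterisked values, which also used 50 mM instead of 100 mM NaCl), 1 mM ATP and 5 mM MgCl2. Binding to fluorescent Ub-loaded UbcH5B (C85K mutant) was then read by TR-FRET after 1 h more.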

Assay [2] has as its system T-cell. The assay is described as follows: IL-2 secretion from T-cells co-stimulated with anti-CD3 and anti-CD28 antibody (Biological Example 2). Type of assay: cell-based, human. Particulars: Homo sapiens, T-cell, fold change over baseline, primary human total T-cells, read-out: IL-2 secretion Anti-CD3/Anti-CD28 stimulation; for fold induction at 0.3 µM: 0.3 μM Cbl-b inhibitor; for fold induction at 1 µM: 1 μM Cbl-b inhibitor; for fold induction at 4 µM: 4 μM Cbl-b inhibitor. In short, it runs like this: (§1)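 Values are fold-change over baseline: readings (IL-2 release, CD25 staining) from inhibitor-treated T-cells divided against untreated cells […]. No detailed procedure stated.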

The target in another assay is Cbl-b (residues 36-427) (Homo sapiens, UniProt Q13191). The assay is described as follows: Cbl-b binding assay (SPR, Biacore T200). The note with it: 20° C., 1:1 binding model. In outline: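 NeutrAvidin capture chip, 20° C; 50 s injections at 50 μl/min, 90-180 s dissociation; 0.3 M NaCl regeneration. Asterisked column: 50 mM NaCl buffer and 30 nM Src kinase in place of 100 mM NaCl and 60 nM Src kinase. 1:1 fit.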
(SPR reads the build-up and loss of mass on a sensor chip optically.)

The subject of assay [3] is T-cell. The assay is described as follows: CD25 cell surface staining on T-cells co-stimulated with anti-CD3 and anti-CD28 antibody (Biological Example 2). The class given is cell-based, human. The note with it: Homo sapiens, T-cell, fold change over baseline, primary human total T-cells, read-out: CD25 staining Anti-CD3/Anti-CD28 stimulation; for fold induction at 0.3 µM: 0.3 μM Cbl-b inhibitor; for fold induction at 1 µM: 1 μM Cbl-b inhibitor; for fold induction at 4 µM: 4 μM Cbl-b inhibitor. In outline:
as §1

For assay [4], the target named is T1, Cbl-b. Put plainly: Cbl-b inhibition assay (Cbl-b activity assay, FRET, Biological Example 1; 100 mM NaCl, 60 nM Src kinase). Type of assay: biochemical. Particulars: upper bound stated in text lists; read-out: IC50 values in the Cbl-b inhibition assay of Biological Example 1. In outline:
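TR-FRET assay using N-terminal biotinylated Avi-tagged Cbl-b bound to streptavidin-terbium, Src kinase for Cbl-b phosphorylation, and UbcH5B irreversibly conjugated to Bodipy-Fluorescein-ubiquitin. Phosphorylated Cbl-b binds UbcH5B-Ub, bringing the fluorophores together; inhibition is read as loss of FRET signal.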

Sequence of Cbl-b (residues 36-427) (Q13191 36-427): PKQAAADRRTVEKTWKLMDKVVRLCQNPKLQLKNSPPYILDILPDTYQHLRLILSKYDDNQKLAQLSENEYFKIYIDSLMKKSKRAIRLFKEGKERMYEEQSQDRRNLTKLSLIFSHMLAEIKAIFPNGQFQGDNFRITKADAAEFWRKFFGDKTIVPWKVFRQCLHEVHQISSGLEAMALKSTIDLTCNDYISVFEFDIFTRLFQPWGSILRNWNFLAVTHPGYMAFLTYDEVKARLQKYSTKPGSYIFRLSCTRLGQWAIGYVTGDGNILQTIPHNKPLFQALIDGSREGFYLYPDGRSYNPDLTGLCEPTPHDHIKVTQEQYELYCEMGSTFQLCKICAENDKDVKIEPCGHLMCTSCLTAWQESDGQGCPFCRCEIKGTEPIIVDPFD
T1 sequence (Q13191 36-427): as above

For the compound `C[C@H](Cc1nncn1C)c1cccc(NC(=O)c2ccnc(C(F)(F)F)n2)c1` [Compound 187, (R)-N-(3-(1-(4-methyl-4H-1,2,4-triazol-3-yl)propan-2-yl)phenyl)-2-(trifluoromethyl)pyrimidine-4-carboxamide], the IC50 at Cbl-b [1] lay within 100 to 300 nM. Besides, in the assay with T-cell [2], the fold induction at 0.3 µM is 1.01 to 2.5, the fold induction at 1 µM lay in the range of 2.51 to 5 and the fold induction at 4 µM was above 7.5. Moreover, the Kd on Cbl-b (residues 36-427) lay in the range of 100 to 300 nM. In addition, in the assay on T-cell [3], the fold induction at 0.3 µM lay within 1.51 to 1.75, the fold induction at 1 µM was above 1.76 and the fold induction at 4 µM was above 1.76. The IC50 at Cbl-b [4] is at most 500 nM.
In the case of `C[C@H](Cc1nncn1C)c1cccc(NC(=O)c2cccc(C(F)(F)CO)n2)c1` [Compound 188, (R)-6-(1,1-difluoro-2-hydroxyethyl)-N-(3-(1-(4-methyl-4H-1,2,4-triazol-3-yl)propan-2-yl)phenyl)picolinamide], the IC50 at Cbl-b [1] fell in the range of 100 to 300 nM. Moreover, in the assay with T-cell [2], the fold induction at 0.3 µM was below 1, the fold induction at 1 µM is below 1 and the fold induction at 4 µM was below 1. Also, the Kd on Cbl-b (residues 36-427) lay in the range of 301 to 1000 nM. Besides, in the assay with T-cell [3], the fold induction at 0.3 µM lay in the range of 1.01 to 1.3, the fold induction at 1 µM fell in the range of 1.31 to 1.5 and the fold induction at 4 µM is above 1.76. In addition, the IC50 at Cbl-b [4] is at most 500 nM.
`C[C@H](Cc1nncn1C)c1cccc(NC(=O)c2cncc(C(F)(F)F)n2)c1` [Compound 189, (R)-N-(3-(1-(4-methyl-4H-1,2,4-triazol-3-yl)propan-2-yl)phenyl)-6-(trifluoromethyl)pyrazine-2-carboxamide]: the IC50 at Cbl-b [1] lay in the range of 100 to 300 nM. Also, in the assay with T-cell [2], the fold induction at 0.3 µM fell in the range of 1.01 to 2.5, the fold induction at 1 µM lay in the range of 2.51 to 5 and the fold induction at 4 µM is 5 to 7.5. Further, the Kd at Cbl-b (residues 36-427) was in the range of 301 to 1000 nM. In addition, in the assay with T-cell [3], the fold induction at 0.3 µM is above 1.76, the fold induction at 1 µM was above 1.76 and the fold induction at 4 µM is above 1.76. Moreover, the IC50 at Cbl-b [4] was at most 500 nM.
Consider `C[C@H](Cc1nncn1C)c1cccc(NC(=O)c2cc(C3(O)COC3)cc(C(F)(F)F)n2)c1` [Compound 190, (R)-4-(3-hydroxyoxetan-3-yl)-N-(3-(1-(4-methyl-4H-1,2,4-triazol-3-yl)propan-2-yl)phenyl)-6-(trifluoromethyl)picolinamide], for which the IC50 on Cbl-b [1] was 100 to 300 nM. Besides, in the assay with T-cell [2], the fold induction at 0.3 µM was below 1, the fold induction at 1 µM fell in the range of 1.01 to 2.5 and the fold induction at 4 µM lay within 5 to 7.5. This compound showed a Kd at Cbl-b (residues 36-427) of 100 to 300 nM. Further, in the assay with T-cell [3], the fold induction at 0.3 µM is above 1.76, the fold induction at 1 µM is above 1.76 and the fold induction at 4 µM is above 1.76. In addition, on Cbl-b [4], the IC50 was at most 500 nM.
On to `C[C@H](Cc1nncn1C)c1cccc(NC(=O)c2cc(S(C)(=O)=O)cc(C3CC3)n2)c1` [Compound 198, 6-cyclopropyl-N-[3-[(1R)-1-methyl-2-(4-methyl-1,2,4-triazol-3-yl)ethyl]phenyl]-4-methylsulfonyl-pyridine-2-carboxamide], for which the IC50 at Cbl-b [1] lay in the range of 100 to 300 nM. Besides, in the assay on T-cell [2], the fold induction at 0.3 µM is 1.01 to 2.5, the fold induction at 1 µM was 1.01 to 2.5 and the fold induction at 4 µM was 1.01 to 2.5. The compound further came in with a Kd at Cbl-b (residues 36-427) of 100 to 300 nM. For the same compound, in the assay on T-cell [3], the fold induction at 0.3 µM is 1.01 to 1.3, the fold induction at 1 µM is 1.01 to 1.3 and the fold induction at 4 µM is below 1. Also, the IC50 at Cbl-b [4] was at most 500 nM.
For `C[C@H](Cc1nncn1C)c1cccc(NC(=O)c2cc(S(N)(=O)=O)cc(C(F)(F)F)n2)c1` [Compound 200, (R)-N-(3-(1-(4-methyl-4H-1,2,4-triazol-3-yl)propan-2-yl)phenyl)-4-sulfamoyl-6-(trifluoromethyl)picolinamide], the IC50 on Cbl-b [1] lay in the range of 100 to 300 nM. In addition, in the assay on T-cell [2], the fold induction at 0.3 µM is below 1, the fold induction at 1 µM was below 1 and the fold induction at 4 µM was 1.01 to 2.5. On Cbl-b (residues 36-427), the Kd fell in the range of 301 to 1000 nM. Moreover, in the assay with T-cell [3], the fold induction at 0.3 µM was 1.01 to 1.3, the fold induction at 1 µM was in the range of 1.01 to 1.3 and the fold induction at 4 µM was in the range of 1.01 to 1.3. Also, the half-maximal inhibitory concentration (IC50) at Cbl-b [4] is at most 500 nM.
With `CNS(=O)(=O)c1cc(C(=O)Nc2cccc([C@H](C)Cc3nncn3C)c2)nc(C(F)(F)F)c1` [Compound 201, (R)-N-(3-(1-(4-methyl-4H-1,2,4-triazol-3-yl)propan-2-yl)phenyl)-4-(N-methylsulfamoyl)-6-(trifluoromethyl)picolinamide], the IC50 on Cbl-b [1] lay within 100 to 300 nM. In the assay with T-cell [2], the fold induction at 0.3 µM lay within 1.01 to 2.5, the fold induction at 1 µM lay within 1.01 to 2.5 and the fold induction at 4 µM was below 1. On Cbl-b (residues 36-427), this compound yielded a Kd of 301 to 1000 nM. Further, in the assay with T-cell [3], the fold induction at 0.3 µM lay within 1.01 to 1.3, the fold induction at 1 µM lay within 1.01 to 1.3 and the fold induction at 4 µM is 1.01 to 1.3. Further, the IC50 at Cbl-b [4] was at most 500 nM.
Turning to `C[C@H](Cc1nncn1C)c1cccc(NC(=O)c2cc(O[C@H]3CC[C@@H](O)C3)ccn2)c1` [Compound 206, 4-((1S,3R)-3-hydroxycyclopentyloxy)-N-(3-((R)-1-(4-methyl-4H-1,2,4-triazol-3-yl)propan-2-yl)phenyl)picolinamide], the IC50 is 301 to 1000 nM at Cbl-b [1] and at most 1000 nM at Cbl-b [4]. Besides, the fold induction at 0.3 µM in the assay on T-cell [2] was in the range of 1.01 to 2.5; in the assay with T-cell [3], 1.01 to 1.3. The results for the fold induction at 1 µM with T-cell [2] and in the assay on T-cell [3] were 1.01 to 2.5 and 1.01 to 1.3, respectively. Further, the figures for the fold induction at 4 µM in the assay with T-cell [2] and in the assay with T-cell [3] were 2.51 to 5 and 1.01 to 1.3, respectively. Further, the Kd at Cbl-b (residues 36-427) lay within 301 to 1000 nM.
As for `Cc1ccc(C(=O)Nc2cccc([C@H](C)Cc3nnc[nH]3)c2)nc1C1CC1` [Compound 212, (R)-N-(3-(1-(4H-1,2,4-triazol-3-yl)propan-2-yl)phenyl)-6-cyclopropyl-5-methylpicolinamide], the IC50 at Cbl-b [1] is 301 to 1000 nM; on Cbl-b [4], at most 500 nM. Further, the fold induction at 0.3 µM with T-cell [2] was 1.01 to 2.5; in the assay with T-cell [3] it was 1.51 to 1.75. Moreover, the fold induction at 1 µM was 1.01 to 2.5 in the assay with T-cell [2] and 1.51 to 1.75 in the assay on T-cell [3]. For the same compound, the fold induction at 4 µM is 1.01 to 2.5 with T-cell [2] and above 1.76 with T-cell [3]. Further, the Kd at Cbl-b (residues 36-427) lay in the range of 1000 to 3000 nM.
Regarding `Cc1conc1C[C@@H](C)c1cccc(NC(=O)c2ccnc(C(F)(F)F)n2)c1` [Compound 213a, (R)-N-(3-(1-(4-methylisoxazol-3-yl)propan-2-yl)phenyl)-2-(trifluoromethyl)pyrimidine-4-carboxamide], at Cbl-b [1], the IC50 fell in the range of 100 to 300 nM. For the same compound, in the assay with T-cell [2], the fold induction at 0.3 µM fell in the range of 1.01 to 2.5, the fold induction at 1 µM is 1.01 to 2.5 and the fold induction at 4 µM was 2.51 to 5. For the same compound, at Cbl-b (residues 36-427), the Kd was in the range of 100 to 300 nM. Besides, in the assay on T-cell [3], the fold induction at 0.3 µM is 1.01 to 1.3, the fold induction at 1 µM lay within 1.01 to 1.3 and the fold induction at 4 µM lay within 1.01 to 1.3. Besides, the IC50 on Cbl-b [4] was at most 500 nM.
As to `C[C@H](Cc1nncn1C)c1cccc(NC(=O)c2cc(C(=O)N3CC[C@](C)(O)C3)ccn2)c1` [Compound 222, 4-((S)-3-hydroxy-3-methylpyrrolidine-1-carbonyl)-N-(3-((R)-1-(4-methyl-4H-1,2,4-triazol-3-yl)propan-2-yl)phenyl)picolinamide], the IC50 is 301 to 1000 nM at Cbl-b [1] and at most 1000 nM on Cbl-b [4]. In addition, the fold induction at 0.3 µM is below 1 in the assay on T-cell [2] and 1.51 to 1.75 with T-cell [3]. Moreover, the fold induction at 1 µM in the assay on T-cell [2] was below 1; in the assay with T-cell [3], 1.31 to 1.5. In addition, the fold induction at 4 µM with T-cell [2] is below 1; in the assay on T-cell [3] it was 1.51 to 1.75. On Cbl-b (residues 36-427), this compound returned a Kd of 1000 to 3000 nM.
For `C[C@H](Cc1nncn1C)c1cccc(NC(=O)c2cc(C(=O)N3C[C@@H](O)C[C@H]3C)ccn2)c1` [Compound 224, 4-((2R,4S)-4-hydroxy-2-methylpyrrolidine-1-carbonyl)-N-(3-((R)-1-(4-methyl-4H-1,2,4-triazol-3-yl)propan-2-yl)phenyl)picolinamide], the IC50 on Cbl-b [1] is 100 to 300 nM. For the same compound, in the assay with T-cell [2], the fold induction at 0.3 µM is below 1, the fold induction at 1 µM was below 1 and the fold induction at 4 µM was below 1. For the same compound, the Kd at Cbl-b (residues 36-427) lay in the range of 301 to 1000 nM. For the same compound, in the assay on T-cell [3], the fold induction at 0.3 µM lay in the range of 1.01 to 1.3, the fold induction at 1 µM was in the range of 1.01 to 1.3 and the fold induction at 4 µM lay within 1.51 to 1.75. Also, the IC50 on Cbl-b [4] is at most 500 nM.
